Assay [1] deals with human Gal-1 (hGal-1) (Homo sapiens (Human), UniProt P09382). As to the kind of experiment: competitive binding assay: biotinylated hGal-1 binding to microplate-adsorbed asialofetuin (ASF). The settings on record: Table 15; read-out: IC50 (Galectin-1 inhibition). The method in brief:
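Spectrophotometric competition readout: after compound and biotinylated hGal-1 (300-1000 ng/mL) sit 3 h at 4° C on adsorbed asialofetuin, streptavidin-peroxidase (1 h, 4° C) and ABTS reveal residual binding. Reported IC50 values are means of repeat runs.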

Assay [2] addresses human Gal-3 (hGal-3) (Homo sapiens (Human), UniProt P17931). As to the kind of experiment: competitive binding assay: biotinylated hGal-3 binding to microplate-adsorbed asialofetuin (ASF). The method in brief: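 3 h, 4 °C binding step; cold buffer wash; streptavidin-HRP 80 ng/mL, 1 h, 4 °C; ABTS colorimetric read-out. Compounds diluted serially in DMSO. IC50 reported as mean of repeat runs.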

The mark [3] stands for this setting: Table 5, read-out: IC50 (Gal-3 inhibition).
Setting [4] is: Gal-3 inhibition, binding of biotinylated hGal-3 to ASF, mean values, read-out: IC50.
Where [5] appears, read: Table 11, read-out: IC50 (Gal-3 inhibition).

Read-outs that look alike come from different tables or passages of the source.

human Gal-3 (hGal-3), sequence (P17931 whole entry): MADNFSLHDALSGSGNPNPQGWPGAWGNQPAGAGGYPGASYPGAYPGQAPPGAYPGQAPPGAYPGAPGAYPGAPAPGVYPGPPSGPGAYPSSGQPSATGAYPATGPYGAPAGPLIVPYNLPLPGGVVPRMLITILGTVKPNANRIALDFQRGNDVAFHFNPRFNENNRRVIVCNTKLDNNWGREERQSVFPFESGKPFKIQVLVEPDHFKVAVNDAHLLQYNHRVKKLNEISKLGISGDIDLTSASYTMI
human Gal-1 (hGal-1), sequence (P09382 whole entry): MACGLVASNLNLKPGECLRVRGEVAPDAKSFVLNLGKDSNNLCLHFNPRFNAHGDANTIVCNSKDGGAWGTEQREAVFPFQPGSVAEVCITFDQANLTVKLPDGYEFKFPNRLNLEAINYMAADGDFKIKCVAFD

In general, IC50 refers to the concentration that inhibits the measured activity by half. Consider “(2S,3R,4S,5R,6R)-2-(((S)-(2-Cyclopropylphenyl)(4,4-difluoro-1-hydroxycyclohexyl)methyl)thio)-6-(hydroxymethyl)-4-(4-(3,4,5-trifluorophenyl)-1H-1,2,3-triazol-1-yl)tetrahydro-2H-pyran-3,5-diol [Example 2.44.106S.]”, for which the IC50 worked out at 1900 nM in assay [1] and 930 nM in assay [2] (setting [3]).
Take `Cc1conc1[C@@H](S[C@@H]1O[C@H](CO)[C@H](O)[C@H](n2cc(-c3cc(F)c(F)c(F)c3)nn2)[C@H]1O)C1(O)CCS(=O)(=O)CC1` [Example 2.66.120R., 4-((R)-(((2S,3R,4S,5R,6R)-3,5-Dihydroxy-6-(hydroxymethyl)-4-(4-(3,4,5-trifluorophenyl)-1H-1,2,3-triazol-1-yl)tetrahydro-2H-pyran-2-yl)thio)(4-methylisoxazol-3-yl)methyl)-4-hydroxytetrahydro-2H-thiopyran 1,1-dioxide]: the IC50 in assay [1] was found to be 70 nM; in assay [2] (setting [4]), 30 nM.
As to `CC(C)(O)C(S[C@@H]1O[C@H](CO)[C@H](O)[C@H](n2cc(-c3cc(F)c(F)c(F)c3)nn2)[C@H]1O)c1cccc2ccccc12` (stereo partly drawn) [Example 2.31.115., (2S,3R,4S,5R,6R)-2-((2-Hydroxy-2-methyl-1-(naphthalen-1-yl)propyl)thio)-6-(hydroxymethyl)-4-(4-(3,4,5-trifluorophenyl)-1H-1,2,3-triazol-1-yl)tetrahydro-2H-pyran-3,5-diol], the IC50 was determined as 1390 nM in assay [1] and 180 nM in assay [2] (setting [4]).
For `O=C(NC1CC1)N1CCC(O)([C@H](S[C@@H]2O[C@H](CO)[C@H](O)[C@H](n3cc(-c4cc(F)c(F)c(F)c4)nn3)[C@H]2O)c2ccccc2C(F)(F)F)CC1` [Example 2.49.112R., N-Cyclopropyl-4-((R)-(((2S,3R,4S,5R,6R)-3,5-dihydroxy-6-(hydroxymethyl)-4-(4-(3,4,5-trifluorophenyl)-1H-1,2,3-triazol-1-yl)tetrahydro-2H-pyran-2-yl)thio)(2-(trifluoromethyl)phenyl)methyl)-4-hydroxypiperidine-1-carboxamide], in that order: 160 nM and 50 nM.
The matching figures for `Cc1nc([C@@H](S[C@@H]2O[C@H](CO)[C@H](O)[C@H](n3cc(-c4cc(F)c(F)c(F)c4)nn3)[C@H]2O)C(C)(C)O)c(C)o1` [Example 2.31.122R., (2S,3R,4S,5R,6R)-2-(((R)-1-(2,5-Dimethyloxazol-4-yl)-2-hydroxy-2-methylpropyl)thio)-6-(hydroxymethyl)-4-(4-(3,4,5-trifluorophenyl)-1H-1,2,3-triazol-1-yl)tetrahydro-2H-pyran-3,5-diol]: 670 nM and 370 nM.
As for “(2S,3R,4S,5R,6R)-2-(((S)-(4-Hydroxy-2,2,6,6-tetramethyltetrahydro-2H-pyran-4-yl)(2-(trifluoromethyl)phenyl)methyl)thio)-6-(hydroxymethyl)-4-(4-(3,4,5-trifluorophenyl)-1H-1,2,3-triazol-1-yl)tetrahydro-2H-pyran-3,5-diol [Example 2.42.102S.]”, the results for the IC50 in assay [1] and in assay [2] (setting [3]) were over 100000 nM and 7820 nM, respectively.
`CCc1cccnc1[C@H](S[C@@H]1O[C@H](CO)[C@H](O)[C@H](n2cc(-c3cc(F)c(F)c(F)c3)nn2)[C@H]1OC)C1(O)CCC(F)(F)CC1` [Example 2.44.142S.I., (2R,3R,4S,5R,6S)-6-(((S)-(4,4-Difluoro-1-hydroxycyclohexyl)(3-ethylpyridin-2-yl)methyl)thio)-2-(hydroxymethyl)-5-methoxy-4-(4-(3,4,5-trifluorophenyl)-1H-1,2,3-triazol-1-yl)tetrahydro-2H-pyran-3-ol]: the IC50 in assay [1] was 8310 nM; in assay [2] (setting [5]) it was 8110 nM.
As to `Cc1nc(C)c([C@H](S[C@@H]2O[C@H](CO)[C@H](O)[C@H](n3cc(-c4cc(F)c(F)c(F)c4)nn3)[C@H]2O)C2(O)CCOCC2)nc1C` [Example 2.41.119S., (2R,3R,4S,5R,6S)-2-(Hydroxymethyl)-6-(((S)-(4-hydroxytetrahydro-2H-pyran-4-yl)(3,5,6-trimethylpyrazin-2-yl)methyl)thio)-4-(4-(3,4,5-trifluorophenyl)-1H-1,2,3-triazol-1-yl)tetrahydro-2H-pyran-3,5-diol], the IC50 in assay [1] came to 19900 nM; in assay [2] (setting [3]), 2990 nM.
With `Cc1cccnc1C(S[C@@H]1O[C@H](CO)[C@H](O)[C@H](n2cc(-c3cc(F)c(F)c(F)c3)nn2)[C@H]1O)C1(O)CCOCC1` (stereo partly drawn) [Example 2.41.126., (2R,3R,4S,5R,6S)-2-(Hydroxymethyl)-6-(((4-hydroxytetrahydro-2H-pyran-4-yl)(3-methylpyridin-2-yl)methyl)thio)-4-(4-(3,4,5-trifluorophenyl)-1H-1,2,3-triazol-1-yl)tetrahydro-2H-pyran-3,5-diol], the IC50 in assay [1] was 800 nM; in assay [2] (setting [4]), 80 nM.
For `CCO[C@@H]1[C@@H](n2cc(-c3cc(F)c(F)c(F)c3)nn2)[C@@H](O)[C@@H](CO)O[C@H]1S[C@H](c1ncccc1C)C1(O)CCC(F)(F)CC1` [Example 2.44.126R.II., (2R,3R,4S,5R,6S)-6-(((R)-(4,4-Difluoro-1-hydroxycyclohexyl)(3-methylpyridin-2-yl)methyl)thio)-5-ethoxy-2-(hydroxymethyl)-4-(4-(3,4,5-trifluorophenyl)-1H-1,2,3-triazol-1-yl)tetrahydro-2H-pyran-3-ol], in that order: 870 nM and 110 nM.
The matching figures for `Cc1ccncc1C(S[C@@H]1O[C@H](CO)[C@H](O)[C@H](n2cc(-c3cc(F)c(F)c(F)c3)nn2)[C@H]1O)C(C)(C)O` (stereo partly drawn) [Example 2.31.117., (2S,3R,4S,5R,6R)-2-((2-Hydroxy-2-methyl-1-(4-methylpyridin-3-yl)propyl)thio)-6-(hydroxymethyl)-4-(4-(3,4,5-trifluorophenyl)-1H-1,2,3-triazol-1-yl)tetrahydro-2H-pyran-3,5-diol]: 4950 nM and 530 nM.
On to “(2S,3R,4S,5R,6R)-2-(((S)-(4,4-Difluoro-1-hydroxycyclohexyl)(2-(trifluoromethyl)phenyl)methyl)thio)-6-(hydroxymethyl)-4-(4-(3,4,5-trifluorophenyl)-1H-1,2,3-triazol-1-yl)tetrahydro-2H-pyran-3,5-diol [Example 2.44.112S.]”, for which the IC50 in assay [1] was 17600 nM; in assay [2] (setting [3]) it was 19500 nM.
With `Cc1nc(C)c([C@@H](S[C@@H]2O[C@H](CO)[C@H](O)[C@H](n3cc(-c4cc(F)c(F)c(F)c4)nn3)[C@H]2O)C(C)(C)O)nc1C` [Example 2.31.119R., (2S,3R,4S,5R,6R)-2-(((R)-2-Hydroxy-2-methyl-1-(3,5,6-trimethylpyrazin-2-yl)propyl)thio)-6-(hydroxymethyl)-4-(4-(3,4,5-trifluorophenyl)-1H-1,2,3-triazol-1-yl)tetrahydro-2H-pyran-3,5-diol], the IC50 in assay [1] came to 1150 nM; in assay [2] (setting [4]), 270 nM.
As for `CO[C@@H]1[C@@H](n2cc(-c3cc(F)c(F)c(F)c3)nn2)[C@@H](O)[C@@H](CO)O[C@H]1SC(c1nccc(Cl)c1C)C1(O)CCC(F)(F)CC1` (stereo partly drawn) [Example 2.44.141.I., (2R,3R,4S,5R,6S)-6-(((4-Chloro-3-methylpyridin-2-yl)(4,4-difluoro-1-hydroxycyclohexyl)methyl)thio)-2-(hydroxymethyl)-5-methoxy-4-(4-(3,4,5-trifluorophenyl)-1H-1,2,3-triazol-1-yl)tetrahydro-2H-pyran-3-ol], the IC50 in assay [1] was 860 nM; in assay [2] (setting [5]), 150 nM.
On to `Cc1conc1C(S[C@@H]1O[C@H](CO)[C@H](O)[C@H](n2cc(-c3cc(F)c(F)c(F)c3)nn2)[C@H]1O)C(C)(C)O` (stereo partly drawn) [Example 2.31.120., (2S,3R,4S,5R,6R)-2-((2-Hydroxy-2-methyl-1-(4-methylisoxazol-3-yl)propyl)thio)-6-(hydroxymethyl)-4-(4-(3,4,5-trifluorophenyl)-1H-1,2,3-triazol-1-yl)tetrahydro-2H-pyran-3,5-diol], for which the IC50 in assay [1] turned out to be 3000 nM; in assay [2] (setting [4]), 730 nM.
For `OC[C@H]1O[C@@H](SC(c2nccnc2Cl)C2(O)CCC(F)(F)CC2)[C@H](O)[C@@H](n2cc(-c3cc(F)c(F)c(F)c3)nn2)[C@H]1O` (stereo partly drawn) [Example 2.44.133., (2S,3R,4S,5R,6R)-2-(((3-Chloropyrazin-2-yl)(4,4-difluoro-1-hydroxycyclohexyl)methyl)thio)-6-(hydroxymethyl)-4-(4-(3,4,5-trifluorophenyl)-1H-1,2,3-triazol-1-yl)tetrahydro-2H-pyran-3,5-diol], in that order: 450 nM and 40 nM.
Take `CCn1ncc(Cl)c1C(S[C@@H]1O[C@H](CO)[C@H](O)[C@H](n2cc(-c3cc(F)c(F)c(F)c3)nn2)[C@H]1OC)C1(O)CCC(F)(F)CC1` (stereo partly drawn) [Example 2.44.139.I., (2R,3R,4S,5R,6S)-6-(((4-Chloro-1-ethyl-1H-pyrazol-5-yl)(4,4-difluoro-1-hydroxycyclohexyl)methyl)thio)-2-(hydroxymethyl)-5-methoxy-4-(4-(3,4,5-trifluorophenyl)-1H-1,2,3-triazol-1-yl)tetrahydro-2H-pyran-3-ol]: the IC50 came out at 3900 nM in assay [1] and 620 nM in assay [2] (Table 10, 2-OMe-Gal inhibitors, read-out: IC50 (Gal-3 inhibition)).
For the compound `Cc1nc(C)c(C(S[C@@H]2O[C@H](CO)[C@H](O)[C@H](n3cc(-c4cc(F)c(F)c(F)c4)nn3)[C@H]2O)C2(O)CCN(C)CC2)nc1C` (stereo partly drawn) [Example 2.40.119., (2S,3R,4S,5R,6R)-2-(((4-Hydroxy-1-methylpiperidin-4-yl)(3,5,6-trimethylpyrazin-2-yl)methyl)thio)-6-(hydroxymethyl)-4-(4-(3,4,5-trifluorophenyl)-1H-1,2,3-triazol-1-yl)tetrahydro-2H-pyran-3,5-diol], the IC50 in assay [1] was 270 nM; in assay [2] (setting [4]), 100 nM.

These data come from patent US12404295B2, “(Hetero)aryl-methyl-thio-beta-D-galactopyranoside derivatives” (Idorsia Pharmaceuticals Ltd, priority 2019, dated 2025).
